According to patent US8633211B2, “Bicyclic organic compounds suitable for the treatment of inflammatory or allergic conditions” (Novartis AG, priority 2007, dated 2014):

Biological target: T1, human S1P2 receptor (Homo sapiens, UniProt O95136)
T1 construct: expressed in transfected cells; host or cells: CHO cells (membrane preparation)
Assay: GTPγS binding assay (SPA), antagonism of S1P at S1P2
Assay type: biochemical
Conditions: GTP-γ-S binding assay, membranes of CHO cells expressing human S1P2, 5 nM S1P
Description: The ability of compounds to antagonise S1P activity at S1P2 and S1P3 receptors was examined using GTPγS binding assays.
Membranes preparations were generated from CHO cells expressing either the human S1P2 or S1P3 receptors by homogenisation of the cell suspension and centrifugation at 40 000 g for 30 minutes at 4° C. The supernatant was removed, pellet re-suspended in a 10 mM HEPES, 10 mM EDTA buffer and centrifuged as above. The pellet was re-suspended and stored at −80° C. until use.
Scintillation proximity assay (SPA) technology was used for the GTPγS binding assays. Serial dilutions of test compounds were placed in a 96-well optiplate with 5 nM S1P, 1.25 μg membrane, 0.5 mg SPA beads, 0.3 μM GDP and 100 μM sodium orthovanidate, per well. The assay components were incubated for 2 hours to ensure equilibrium was attained. The assay was started by the addition of 300 pM [^35S]GTPγS per well and incubated for 60 minutes prior to centrifugation at 3000 rpm for 3 minutes and reading of a Packard TopCount.
Data were analysed using Activity Base (IDBS, UK) by fitting a four parameter logistic curve to generate IC50 values for each compound.

T1 sequence (O95136 whole entry): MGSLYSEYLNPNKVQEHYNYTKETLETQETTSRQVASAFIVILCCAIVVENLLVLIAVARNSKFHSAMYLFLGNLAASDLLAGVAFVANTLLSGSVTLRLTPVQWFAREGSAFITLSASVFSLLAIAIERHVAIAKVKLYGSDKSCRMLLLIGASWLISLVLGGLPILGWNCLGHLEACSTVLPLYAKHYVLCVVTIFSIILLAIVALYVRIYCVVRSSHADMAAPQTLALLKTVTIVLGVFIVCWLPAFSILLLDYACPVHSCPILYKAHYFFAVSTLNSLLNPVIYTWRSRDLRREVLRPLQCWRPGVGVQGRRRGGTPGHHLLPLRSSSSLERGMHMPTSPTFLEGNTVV

Kb | SMILES
4.8 nM | CCOc1ccc(C(=O)Cn2c(=O)n(CCCC(=O)NC3CCCC3)c(=O)c3cc(Cl)ccc32)cc1Cl [Compound 3-4, 4-{6-Chloro-1-[2-(3-chloro-4-ethoxy-phenyl)-2-oxo-ethyl]-2,4-dioxo-1,4-dihydro-2H quinazolin-3-yl}-N-cyclopentyl-butyramide]
0.8 nM | COc1cc(OC)c(NC(=O)Cn2c(=O)n(CC(=O)O)c(=O)c3ccccc32)cc1Cl [Example 1-1, {1-[(5-Chloro-2,4-dimethoxy-phenylcarbamoyl)-methyl]-2,4-dioxo-1,4-dihydro-2H-quinazolin-3-yl}-acetic acid]
1.9 nM | COc1cc(OC)c(NC(=O)Cn2c(=O)n(CC(=O)NCCc3cccnc3)c(=O)c3ccccc32)cc1Cl [Example 1-13, N-(5-Chloro-2,4-dimethoxy-phenyl)-2-{2,4-dioxo-3-[(2-pyridin-3-yl-ethylcarbamoyl)-methyl]-3,4-dihydro-2H-quinazolin-1-yl}-acetamide]
3.6 nM | COc1cc(OC)c(NC(=O)Cn2c(=O)n(-c3ccc(CC(=O)NCCc4ccccc4)cc3)c(=O)c3ccccc32)cc1Cl [Example 2-1, 2-(4-{1-[(5-Chloro-2,4-dimethoxy-phenylcarbamoyl)-methyl]-2,4-dioxo-1,4-dihydro-2H-quinazolin-3-yl}-phenyl)-N-phenethyl-acetamide]

Biological target: T2, human S1P4 (Homo sapiens, UniProt O95977)
T2 construct: expressed in transfected cells; host or cells: CHO (Chinese Hamster Ovary) S1P4/Gα16 cell clone
T2 sequence (O95977 1-384): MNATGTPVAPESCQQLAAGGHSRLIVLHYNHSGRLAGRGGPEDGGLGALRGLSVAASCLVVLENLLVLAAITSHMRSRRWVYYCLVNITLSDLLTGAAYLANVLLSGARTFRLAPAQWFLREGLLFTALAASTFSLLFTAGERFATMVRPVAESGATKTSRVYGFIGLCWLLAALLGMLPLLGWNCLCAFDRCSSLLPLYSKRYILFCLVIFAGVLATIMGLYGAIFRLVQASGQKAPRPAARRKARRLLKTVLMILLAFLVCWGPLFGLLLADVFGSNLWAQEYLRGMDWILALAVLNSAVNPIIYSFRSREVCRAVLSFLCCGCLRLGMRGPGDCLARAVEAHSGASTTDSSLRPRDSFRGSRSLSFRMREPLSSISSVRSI
Assay: CHO Gα16 S1P4 intracellular Ca2+ (FLIPR) assay
Assay type: cell-based
Conditions: relative antagonism of S1P (EC80) induced Ca2+ change, CHO S1P4/Gα16 cells
Description: The cells are plated in 384 well black plates (10′000 cells per well). […] After washing, the cells are transferred to the FLIPR. […] This allows the determination of the maximal fluorescence (Fmax).

IC50 | SMILES
15 nM | COc1cc(OC)c(NC(=O)Cn2c(=O)n(CC(=O)NCCc3ccccc3)c(=O)c3ccccc32)cc1Cl [Example 1-35, 2-{1-[(5-Chloro-2,4-dimethoxy-phenylcarbamoyl)-methyl]-2,4-dioxo-1,4-dihydro-2H-quinazolin-3-yl}-N-phenethyl-acetamide]
880 nM | COc1cc(OC)c(NC(=O)Cn2c(=O)n(CC(=O)OC(C)(C)C)c(=O)c3ccccc32)cc1Cl [Example 1-37, {1-[(5-Chloro-2,4-dimethoxy-phenylcarbamoyl)-methyl]-2,4-dioxo-1,4-dihydro-2H-quinazolin-3-yl}-acetic acid tert butyl ester]
